Data as given in article PMC6048956, “A Double-Blind, Placebo-Controlled Trial Demonstrating the Safety, Tolerability, and Pharmacokinetics of Single, Escalating Oral Doses of RTI-336” (Frontiers in Pharmacology, 2018).
“Also recorded” adds a separate entry of the source. Read-outs that look alike come from different tables or passages of the source.

Legend:
[1] = Plasma pharmacokinetics after single oral doses of RTI-336 in healthy males; type: in vivo, human; settings: for half-life / AUC(0-inf) / Cmax / Tmax: male, human, plasma; for half-life: po
Method: (§1) RTI-336-001 was a single-center, double-blind, placebo-controlled, and randomized clinical trial to evaluate the safety, tolerability, and PK of single, escalating oral doses of RTI-336 (0.3, 1, 3, 6, 12, and 20 mg) in 2 cohorts (lowest 3 doses and highest 3 doses) of healthy male participants. RTI-336 and placebo capsules were identical in appearance, and participants, care providers, and those assessing outcomes were blinded to study drug assignment. Each cohort was to be enrolled in 2 groups of 5 participants (randomized 4:1 drug:placebo independently at each dose); the second group was dosed 24 h after the first group, following a safety review of the first group. Each participant would receive up to 3 single, escalating oral doses (in periods 1, 2, and 3) of study drug under fasting conditions, with a minimum of 10 days between doses, and could only participate in one cohort. The number of participants is typical for first-in-man safety and PK studies, and the trial ran to completion.
Blood samples were obtained at 0.25, 0.5, 1, 1.5, 2, 3, 4, 6, 8, 12, 16, 24, 30, 36, and 48 h post-dose. Cumulative urine specimens were collected over the intervals 0–6, 6–12, 12–24, 24–36, and 36–48 h post-dose.

[2] = system: healthy male participants; experiment: Safety and tolerability of single, escalating oral doses (trial RTI-336-001); type: in vivo, human; settings: for serum total bilirubin elevation: day 3 post-dose
Method: as §1
Orthostatic vital signs (HR, systolic and diastolic blood pressure, and respiratory rate) were obtained pre-dose and at 1, 2, 4, 8, 12, 24, and 48 h post-dose. Body weight was measured at screening, on admissions to the clinic for dosing, and at 7 days following their final dose. Physical examinations of all major organ systems (including neurological examination) were performed at admission and at 48 h post-dose. Adverse events (AEs) were monitored from dosing until 8 days post-dose or resolution, whichever was longer.
Six-lead ECG telemetry was monitored from 15 min pre-dose until 8 h post-dose. Supine 12-lead ECGs were obtained pre-dose and at 1, 2, 4, 8, 12, 24, and 48 h post-dose.
Urine for urinalysis (bacteria, bilirubin, blood, glucose, ketones, leukocyte esterase, nitrite, pH, protein, red blood cells, specific gravity, urobilinogen, and WBC) was collected pre-dose and 48 h post-dose. Unfasted blood samples for chemistry (including troponin, albumin, alkaline phosphatase, ALT, AST, BUN, calcium, chloride, CK, creatinine, GGT, globulin, glucose, LDH, phosphorus, potassium, sodium, total bilirubin, total cholesterol, total protein, triglycerides, and uric acid) and hematology (basophils, eosinophils, Hct, Hgb, lymphocytes, RBC indices, monocytes, neutrophils, platelets, RBC, and WBC) were obtained on admission and fasted samples at 48 h post-dose.
The Mini Mental Status Examination (MMSE) ([Folstein et al., 1975]; [Malloy et al., 1997]) was performed on admission to the clinic and at 4 and 8 h post-dose.

dopamine reuptake = dopamine reuptake (Homo sapiens, UniProt Q01959); experiment: Inhibition of dopamine reuptake; type: biochemical
dopamine reuptake, sequence (Q01959 whole entry): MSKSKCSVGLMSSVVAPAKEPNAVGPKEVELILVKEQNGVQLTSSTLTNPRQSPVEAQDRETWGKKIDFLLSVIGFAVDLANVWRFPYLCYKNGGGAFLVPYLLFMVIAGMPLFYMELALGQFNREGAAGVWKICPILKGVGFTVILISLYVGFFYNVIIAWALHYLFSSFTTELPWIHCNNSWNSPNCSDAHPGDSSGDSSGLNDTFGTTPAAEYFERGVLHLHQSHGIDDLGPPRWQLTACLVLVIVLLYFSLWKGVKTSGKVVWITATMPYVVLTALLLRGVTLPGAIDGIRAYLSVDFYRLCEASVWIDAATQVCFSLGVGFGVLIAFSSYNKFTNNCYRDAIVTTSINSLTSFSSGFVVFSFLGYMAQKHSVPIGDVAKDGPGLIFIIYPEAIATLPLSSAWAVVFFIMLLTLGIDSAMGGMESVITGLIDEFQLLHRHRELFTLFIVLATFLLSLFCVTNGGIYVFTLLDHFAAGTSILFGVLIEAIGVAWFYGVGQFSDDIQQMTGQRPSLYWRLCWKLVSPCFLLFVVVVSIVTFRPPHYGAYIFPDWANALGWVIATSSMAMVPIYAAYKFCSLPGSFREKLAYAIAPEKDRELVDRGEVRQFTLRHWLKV

rat = system: rat; design: method as in Carroll et al., 2006a,b; Carroll, 2007; Howell et al., 2007; settings: rat model, ref Carroll et al., 2006a,b, 2007, Howell et al.; cited from earlier work
rhesus monkey = system: rhesus monkey; design: method as in Carroll et al., 2006a,b; Carroll, 2007; Howell et al., 2007; settings: rhesus monkey model, ref Carroll et al., 2006a,b, 2007, Howell et al.; cited from earlier work
rats [3] = settings: rats co-administered RTI-336 with cocaine, ref data on file; cited from earlier work
[4] = co-administration with ethanol, ref data on file, RTI, cited from earlier work
[5] = co-administration with morphine; ref data on file, RTI; cited from earlier work
rats [6] = settings: acute and reversible with reduced dosing, preclinical toxicology; cited from earlier work
monkeys [7] = settings: acute and reversible with reduced dosing, preclinical toxicology; cited from earlier work
dog = settings: 3 mg/kg, 22 h after the dose, preclinical toxicology; cited from earlier work
mice [8] = settings: up to 75 mg/kg, preclinical toxicology; cited from earlier work
[9] = preclinical toxicology; cited from earlier work
monkeys [10] = settings: 9 mg/kg/day, 14-day; cited from earlier work
mice [11] = experiment: Preclinical toxicology, seizures in mice
[12] = single oral dose 1 mg, fasted, healthy males
[13] = single oral dose 3 mg, fasted, healthy males
[14] = single oral dose 6 mg, fasted, healthy males
[15] = single oral dose 12 mg, fasted, healthy males
[16] = single oral dose 20 mg, fasted, healthy males
[17] = humans, single oral doses up to 20 mg

**Q.** With `Cc1ccc(-c2cc([C@@H]3C4CCC(C[C@@H]3c3ccc(Cl)cc3)N4C)on2)cc1` (some centres unmarked) [RTI-336] as the compound, how does the “dose proportionality of plasma drug exposure (AUC0-inf) and Cmax” value ([1]; 1-20 mg single oral dose range) read?
**A.** The value was “increased in proportion to dose; also recorded: increased dose proportionally”.

**Q.** And the “time of peak plasma RTI-336 concentration” value ([1]; across 1-20 mg single oral dose levels, fasted)?
**A.** The value was “around 4 h”.

**Q.** And the half-life ([1]; 1 mg, single oral dose 1 mg, fasted, healthy males, read-out: t1/2 (converted))?
**A.** Its half-life is 5.44 h.

**Q.** What about the half-life ([1]; 3 mg, single oral dose 3 mg, fasted, healthy males, read-out: t1/2 (converted)) of the same compound?
**A.** The half-life was 7.07 h.

**Q.** What about the half-life ([1]; 6 mg, single oral dose 6 mg, fasted, healthy males, read-out: t1/2 (converted)) of the same compound?
**A.** Its half-life is 17.9 h.

**Q.** And the half-life ([1]; 12 mg, single oral dose 12 mg, fasted, healthy males, read-out: t1/2 (converted))?
**A.** Its half-life is 15.3 h.

**Q.** What about the half-life ([1]; 20 mg, across 6, 12 and 20 mg single oral doses, read-out: plasma half-life (converted)) of the same compound?
**A.** The half-life was ~17 h.

**Q.** What about the half-life ([1]; 20 mg, single oral dose 20 mg, fasted, healthy males, read-out: t1/2 (converted)) of the same compound?
**A.** Its half-life is 18 h.

**Q.** What about the AUC(0-inf) [1, 12] of the same compound?
**A.** The AUC(0-inf) was 3.8 ng·h/mL.

**Q.** And the Cmax [1, 12]?
**A.** The Cmax was 0.375 ng/mL.

**Q.** And the Tmax [1, 12]?
**A.** Its Tmax is 4.5 h.

**Q.** What about the AUC(0-inf) [1, 13] of the same compound?
**A.** Its AUC(0-inf) is 12.3 ng·h/mL.

**Q.** And the Cmax [1, 13]?
**A.** The Cmax was 1.04 ng/mL.

**Q.** What about the Tmax [1, 13] of the same compound?
**A.** Its Tmax is 3.71 h.

**Q.** What about the AUC(0-inf) [1, 14] of the same compound?
**A.** Its AUC(0-inf) is 40.4 ng·h/mL.

**Q.** What about the Cmax [1, 14] of the same compound?
**A.** Its Cmax is 3.26 ng/mL.

**Q.** What about the Tmax [1, 14] of the same compound?
**A.** Its Tmax is 4.38 h.

**Q.** And the AUC(0-inf) [1, 15]?
**A.** Its AUC(0-inf) is 63.1 ng·h/mL.

**Q.** What about the Cmax [1, 15] of the same compound?
**A.** Its Cmax is 5.23 ng/mL.

**Q.** What about the Tmax [1, 15] of the same compound?
**A.** Its Tmax is 3.67 h.

**Q.** What about the AUC(0-inf) [1, 16] of the same compound?
**A.** The AUC(0-inf) was 115 ng·h/mL.

**Q.** What about the Cmax [1, 16] of the same compound?
**A.** The Cmax was 10.3 ng/mL.

**Q.** And the Tmax [1, 16]?
**A.** Its Tmax is 3.43 h.

**Q.** And the “serum total bilirubin elevation” value ([2]; 2 participants, transient and mild, resolved by day 8)?
**A.** Its value is < 1.5 × ULN.

**Q.** What about the “effects on the MMSE” value ([2]; 4 and 8 h post-dose) of the same compound?
**A.** Its value is “No effects were observed”.

**Q.** What about the “participants with AEs” value ([2]; cumulative dose 6 mg or greater) of the same compound?
**A.** Its value is 4 of 11.

**Q.** And the “participants with AEs” value ([2]; cumulative doses less than 6 mg)?
**A.** Its value is 3 of 10.

**Q.** And the ECG abnormalities [2, 17]?
**A.** Its ECG abnormalities is “no ECG abnormalities”.

**Q.** What about the “behavioral stimulation (hyperactivity, stereotypic behavior)” value [2, 17] of the same compound?
**A.** Its value is “no such behavioral stimulation”.

**Q.** And the Adverse events ([2]; participant S031, cohort 1, period 2, 1 mg)?
**A.** The Adverse events was “Body temperature decreased”.

**Q.** And the Adverse events ([2]; participant S031, cohort 1, period 3, 3 mg, cumulative 4 mg)?
**A.** The Adverse events was “Body temperature decreased, chalazion”.

**Q.** And the Adverse events ([2]; participant S038, cohort 1, following 3 mg, cumulative 3.3 mg, possibly related to study drug)?
**A.** The Adverse events was “Somnolence^b”.

**Q.** And the “serum total bilirubin elevation” value ([2]; participant S046, 1 mg)?
**A.** Its value is 1.08 × ULN.

**Q.** What about the total bilirubin ([2]; participant S046, 1 mg, day 3 post-dose (ULN 20.5; 13.68 pre-dose, 8.55 day 8)) of the same compound?
**A.** The total bilirubin was 22.23.

**Q.** What about the “serum total bilirubin elevation” value ([2]; participant S046, 3 mg) of the same compound?
**A.** The value was 1.001 × ULN.

**Q.** What about the total bilirubin ([2]; participant S046, 3 mg, day 3 post-dose (6.84 pre-dose, 5.13 day 8)) of the same compound?
**A.** The total bilirubin was 20.52.

**Q.** And the Adverse events ([2]; participant S059, cohort 2, 6 mg)?
**A.** The Adverse events was “Soft tissue inflammation”.

**Q.** What about the “serum total bilirubin elevation” value ([2]; participant S069, 6 mg) of the same compound?
**A.** Its value is 1.25 × ULN.

**Q.** And the total bilirubin ([2]; participant S069, 6 mg, day 3 post-dose (10.26 pre-dose, 10.26 day 8))?
**A.** The total bilirubin was 25.65.

**Q.** What about the Adverse events ([2]; participant S069, cohort 2, 6 mg, related to their activities, not to study drug) of the same compound?
**A.** The Adverse events was “Blood creatine phosphokinase increased”.

**Q.** And the Adverse events ([2]; participant S078, cohort 2, 6, 12, 20 mg, cumulative 38 mg)?
**A.** The Adverse events was “Nasal congestion, pharyngolaryngeal pain”.

**Q.** What about the “effects on other chemistry or hematology, urinalysis, vital sign, or ECG results” value ([2]; single oral doses 0.3-20 mg) of the same compound?
**A.** The value was “No systematic RTI-336 effects were observed”.

**Q.** And the tolerability ([2]; single oral doses 0.3-20 mg, healthy males)?
**A.** The tolerability was “well-tolerated up to the maximum evaluated dose of 20 mg; also recorded: well-tolerated at single doses of up to 20 mg; also recorded: free of significant side effects or toxicity”.

**Q.** What about the maximum tolerated dose ([2]; single oral doses up to 20 mg) of the same compound?
**A.** The maximum tolerated dose was “not identified”.

**Q.** What about the IC50 (dopamine reuptake) of the same compound?
**A.** The IC50 was 23 nM.

**Q.** And the cocaine self-administration (rat)?
**A.** The cocaine self-administration was “suppresses cocaine self-administration”.

**Q.** And the cocaine self-administration (rhesus monkey)?
**A.** The cocaine self-administration was “suppresses cocaine self-administration”.

**Q.** What about the “effect on acute toxicity of cocaine” value (rats [3]) of the same compound?
**A.** Its value is “no potentiation of the acute toxicity of cocaine”.

**Q.** What about the “effect on ethanol-related mortality” value [4] of the same compound?
**A.** Its value is “did not increase ethanol-related mortality”.

**Q.** What about the “effect on ethanol-induced incoordination” value ([4]; rota-rod performance) of the same compound?
**A.** The value was “reduced ethanol-induced incoordination”.

**Q.** And the “effect on morphine-related analgesia” value [5]?
**A.** Its value is “did not affect morphine-related analgesia”.

**Q.** And the “effect on weight loss” value [5]?
**A.** The value was “did increase weight loss”.

**Q.** What about the “central nervous system adverse effects” value (rats [6]) of the same compound?
**A.** The value was “central nervous system stimulation with hyperactivity and stereotypic behavior”.

**Q.** And the “central nervous system adverse effects” value (monkeys [7])?
**A.** Its value is “central nervous system stimulation with hyperactivity and stereotypic behavior”.

**Q.** What about the seizures (dog) of the same compound?
**A.** The seizures was “observed only in one dog”.

**Q.** What about the seizures (mice [8]) of the same compound?
**A.** Its seizures is “did not occur”.

**Q.** And the cardiovascular effects [9]?
**A.** Its cardiovascular effects is “low potential for prolonging QTc interval”.

**Q.** What about the hepatotoxicity (monkeys [10]) of the same compound?
**A.** Its hepatotoxicity is “increased ALT activity and/or bilirubin and mild-to-moderate diffuse or centrilobular vacuolar degeneration in hepatocytes”.

**Q.** What about the “highest seizure-free dose (75 mg/kg) relative to oral ED50 for spontaneous locomotor activity” value (mice [11]) of the same compound?
**A.** The value was 7.5 fold.
